In series [1] the target is electric eel acetylcholinesterase (eeAChE) (Electrophorus electricus, UniProt O42275). Description: Acetylcholinesterase inhibition assay. It counts as biochemical. Conditions: for IC50: IC50 (μM) ± SEM eeAChE, mean ± SEM, n = 3; for SI (Selectivity index): Selectivity index = IC50 of BChE/IC50 of AChE.
The target in another series is Aβ1–42 peptide (Homo sapiens, UniProt P05067). Nature of the series: Self-mediated Aβ1–42 aggregation assay. It counts as biochemical. To be noted: for inhibition of Aβ fibrils: ThT fluorescence, after 24 hours of equimolar treatment with Aβ1–42.
The target of a further series is eqBChE (Equus caballus, UniProt P81908). Nature of the series: Butyrylcholinesterase inhibition assay. In kind it is biochemical.
The next series concerns the target human CA-II (Homo sapiens, UniProt P00918). Description: In vitro human CA-II inhibition assay. In kind it is biochemical.
The target of a further series is AChE. Conditions: read-out: Ki AChE; non-competitive inhibitor; cited from earlier work.
The conditions of series [2]: for Prediction of CNS penetration: from PAMPA-BBB Pe; for BBB penetration in PAMPA assay: stated in words.
A short description of the next series: in vitro. To be noted: PAMPA.
Another series relates to SH-SY5Y cells. Description: Cell viability/neurotoxicity assay. It counts as cell-based, human.
A further series deals with CA-II. To be noted: read-out: Ki CA-II inhibition; cited from earlier work.

Chain of electric eel acetylcholinesterase (eeAChE) (O42275 24-633): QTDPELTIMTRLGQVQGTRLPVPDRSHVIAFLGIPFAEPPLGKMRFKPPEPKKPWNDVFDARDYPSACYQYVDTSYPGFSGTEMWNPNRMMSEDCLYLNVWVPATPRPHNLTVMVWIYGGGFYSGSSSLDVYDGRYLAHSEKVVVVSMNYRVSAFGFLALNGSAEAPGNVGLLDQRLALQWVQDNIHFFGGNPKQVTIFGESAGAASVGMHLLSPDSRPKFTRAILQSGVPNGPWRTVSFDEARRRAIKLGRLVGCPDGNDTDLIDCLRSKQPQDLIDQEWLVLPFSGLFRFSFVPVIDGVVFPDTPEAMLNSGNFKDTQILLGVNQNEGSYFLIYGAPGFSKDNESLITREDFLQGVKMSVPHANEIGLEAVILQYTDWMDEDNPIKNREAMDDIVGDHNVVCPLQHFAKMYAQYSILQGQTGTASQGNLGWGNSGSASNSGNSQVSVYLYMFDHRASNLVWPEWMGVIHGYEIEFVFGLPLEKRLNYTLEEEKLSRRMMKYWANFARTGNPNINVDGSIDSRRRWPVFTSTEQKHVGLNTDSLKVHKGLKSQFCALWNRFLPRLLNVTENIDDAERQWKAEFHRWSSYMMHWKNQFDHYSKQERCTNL
Chain of Aβ1–42 peptide (P05067 672-713): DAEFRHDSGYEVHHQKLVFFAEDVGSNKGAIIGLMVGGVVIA
Chain of eqBChE (P81908 whole entry): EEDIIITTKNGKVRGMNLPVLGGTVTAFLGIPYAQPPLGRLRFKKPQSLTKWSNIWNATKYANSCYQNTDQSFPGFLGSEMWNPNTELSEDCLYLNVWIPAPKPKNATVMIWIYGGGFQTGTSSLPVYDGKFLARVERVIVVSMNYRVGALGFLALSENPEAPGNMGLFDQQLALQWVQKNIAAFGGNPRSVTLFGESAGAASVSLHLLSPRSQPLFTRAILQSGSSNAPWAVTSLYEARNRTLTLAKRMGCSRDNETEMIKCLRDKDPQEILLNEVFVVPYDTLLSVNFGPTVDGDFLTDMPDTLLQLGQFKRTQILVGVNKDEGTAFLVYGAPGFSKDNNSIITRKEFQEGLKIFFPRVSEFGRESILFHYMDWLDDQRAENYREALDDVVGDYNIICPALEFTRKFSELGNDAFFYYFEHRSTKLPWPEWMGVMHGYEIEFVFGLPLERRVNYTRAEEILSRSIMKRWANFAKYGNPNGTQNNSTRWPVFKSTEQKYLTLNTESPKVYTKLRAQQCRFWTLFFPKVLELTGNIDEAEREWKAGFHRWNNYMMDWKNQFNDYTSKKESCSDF

By IC50 is commonly meant the concentration at which inhibition is half-maximal. Lower therefore signals greater potency. As for `C[C@]12CCC(NC(=S)Nc3ccc(S(N)(=O)=O)cc3)CC1=CC[C@@H]1[C@@H]2CC[C@]2(C)C(C(=O)CNCCc3ccccc3)CC[C@@H]12` (stereo partly drawn) [Compound 24, 4-(3-((8S,9S,10R,13S,14S)-10,13-Dimethyl-17-(phenethylglycyl)-2,3,4,7,8,9,10,11,12,13,14,15,16,17-tetradeca-hydro-1H-cyclopenta[a]phenanthren-3-yl)thioureido)benzenesulfonamide], the half-inhibitory concentration (IC50) in [1] was 1.61 ± 0.1 µM; against Aβ1–42 peptide it was 29.6 ± 1.21 µM; on eqBChE it was 12.8 ± 0.45 µM; against human CA-II it was 5.44 ± 0.14 µM. Moreover, in series [1], the “SI (Selectivity index)” value is reported as 8.0.
By Ki is commonly meant the dissociation constant of the complex between target and ligand, obtained from inhibition or displacement. As for isosarcodine, the inhibition constant Ki at AChE was 21.8 µM.
`COc1cc(/C=C/C(=O)CC(=O)/C=C/c2ccc(O)c(OC)c2)ccc1O` [Curcumin, reference compound]: the “inhibition of Aβ fibrils” value against Aβ1–42 peptide is reported as “approximately 60%”.
The term Papp denotes a coefficient for how fast a substance crosses the barrier. A low value points to slow passage. `CC(=O)C1CC[C@H]2[C@@H]3CC=C4CC(N)CC[C@]4(C)[C@H]3CC[C@]12C` (stereo partly drawn) [Compound 12, 1-((8S,9S,10R,13S,14S)-3-amino-10,13-dimethyl-2,3,4,7,8,9,10,11,12,13,14,15,16,17-tetradecahydro-1H-cyclopenta[a]phenanthren-17-yl)ethan-1-one]: it took 67.7 ± 1.09 µM to reach half-maximal inhibition in series [1] (IC50). For the same compound, in [2], the “Prediction of CNS penetration” value was “High (‘CNS+’ (prediction of high BBB permeation); Pe (10^−6 cm s^−1) > 4.39)” and the “BBB penetration in PAMPA assay” value is recorded as “high BBB penetration”. For the same compound, on human CA-II, the concentration for half-maximal inhibition (IC50) was 73.2 ± 1.14 µM. In addition, the apparent permeability coefficient (Papp) in “in vitro” stood at 19.6 ×10⁻⁶ cm/s.
As for `C[C@]12CCC(NC(=S)Nc3ccc(S(N)(=O)=O)cc3)CC1=CC[C@@H]1[C@@H]2CC[C@]2(C)C(C(=O)CN3c4ccccc4Sc4ccccc43)CC[C@@H]12` (stereo partly drawn) [Compound 27, 4-(3-((8S,9S,10R,13S,14S)-17-(2-(10H-Phenothiazin-10-yl)acetyl)-10,13-dimethyl-2,3,4,7,8,9,10,11,12,13,14,15,16,17-tetradecahydro-1H-cyclopenta[a]phenanthren-3-yl)thioureido)benzenesulfonamide], in [1], the IC50 was 0.094 ± 0.002 µM and the “SI (Selectivity index)” value is on record as 166.7. In addition, at Aβ1–42 peptide, 5.78 ± 0.07 µM corresponded to half-maximal inhibition (IC50) and the “inhibition of Aβ fibrils” value is recorded as 85%. Also, it took 15.01 ± 0.03 µM to reach half-maximal inhibition at eqBChE (IC50). In series [2], the “Prediction of CNS penetration” value is listed as “High (‘CNS+’ (prediction of high BBB permeation); Pe (10^−6 cm s^−1) > 4.39)” and the “BBB penetration in PAMPA assay” value is reported as “BBB penetrants”. This compound came in with an IC50 on human CA-II of 5.18 ± 0.12 µM. In “in vitro”, the Papp came to 18.1 ×10⁻⁶ cm/s. Besides, the “protection of SH-SY5Y cells from the toxicity of the Aβ peptide” value in the series with SH-SY5Y cells (SH-SY5Y cells incubated with Aβ1–42) was “effectively protected”. In the series with SH-SY5Y cells (SH-SY5Y cells, 5 μM), the cytotoxicity result is given as “completely non-cytotoxic”.
As to `C[C@]12CC[C@@H]3c4ccc(O)cc4CC[C@H]3[C@@H]1CC[C@H]2O` [Compound 4, α-estradiol], the Ki at CA-II was 40.4 µM.
On to `C[C@H](CCC(=O)O)[C@H]1CC[C@H]2[C@@H]3CC[C@@H]4C[C@H](O)CC[C@]4(C)[C@H]3C[C@H](O)[C@]12C` [Compound 5, deoxycholic acid], for which the Ki at CA-II was 51 µM.
As to `C[C@]12CCC(NC(=S)Nc3ccc(S(N)(=O)=O)cc3)CC1=CC[C@@H]1[C@@H]2CC[C@]2(C)C(C(=O)CNCc3ccccc3)CC[C@@H]12` (stereo partly drawn) [Compound 25, 4-(3-((8S,9S,10R,13S,14S)-17-(Benzylglycyl)-10,13-di-methyl-2,3,4,7,8,9,10,11,12,13,14,15,16,17-tetradeca-hydro-1H-cyclopenta[a]phenanthren-3-yl)thioureido)benzenesulfonamide], the half-inhibitory concentration (IC50) turned out to be 0.98 ± 0.1 µM in series [1], 12.8 ± 0.15 µM against Aβ1–42 peptide, 11.27 ± 0.11 µM on eqBChE and 1.02 ± 0.01 µM at human CA-II. Besides, the “SI (Selectivity index)” value in series [1] is 11.5.
What is called viability is a read-out of living cells in per cent, often relative to untreated cells. Regarding `CC(=O)C1CC[C@H]2[C@@H]3CC=C4CC(NC(=S)Nc5ccc(S(N)(=O)=O)cc5)CC[C@]4(C)[C@H]3CC[C@]12C` (stereo partly drawn) [Compound 15, 4-(3-((8S,9S,10R,13S,14S)-17-Acetyl-10,13-dimethyl-2,3,4,7,8,9,10,11,12,13,14,15,16,17-tetradecahydro-1H-cyclopenta[a]phenanthren-3yl)thioureido)benzenesulfonamide], the IC50 in series [1] turned out to be 13 ± 0.18 µM; against Aβ1–42 peptide it was 9.25 ± 0.17 µM; on eqBChE, 63 ± 1.23 µM; on human CA-II it was 48.9 ± 1.37 µM. Besides, the “SI (Selectivity index)” value in series [1] worked out at 4.8. Also, the “inhibition of Aβ fibrils” value at Aβ1–42 peptide is “approximately 60%”. Moreover, the viability at 5 µM in the series on SH-SY5Y cells (Homo sapiens, SH-SY5Y, read-out: cell viability) is approximately 75%.
`Cc1nnc2n1-c1ccc(Cl)cc1C(c1ccccc1)=NC2` [Alprazolam, reference compound]: the “Prediction of CNS penetration” value in [2] is “High (‘CNS+’ (prediction of high BBB permeation); Pe (10^−6 cm s^−1) > 4.39)”.
As for `C[C@]12CCC(NC(=S)Nc3ccc(S(N)(=O)=O)cc3)CC1=CC[C@@H]1[C@@H]2CC[C@]2(C)C(C(=O)CNc3c4c(cc5ccccc35)CCCC4)CC[C@@H]12` (stereo partly drawn) [Compound 28, 4-(3-((8S,9S,10R,13S,14S)-10,13-Dimethyl-17-((1,2,3,4-tetrahydroanthracen-9-yl)glycyl)-2,3,4,7,8,9,10,11,12,13,14,15,16,17-tetradecahydro-1H-cyclopenta[a]phenanthren-3-yl)thioureido)benzenesulfonamide], the concentration for half-maximal inhibition (IC50) in series [1] is 0.32 ± 0.01 µM; against Aβ1–42 peptide, 26.37 ± 0.25 µM; on eqBChE, 13.5 ± 0.09 µM; against human CA-II it was 31.8 ± 1.08 µM. Besides, the “SI (Selectivity index)” value in series [1] is listed as 42.2.
Consider `C[C@]12CC[C@@H]3c4ccc(O)cc4CC[C@H]3[C@@H]1CCC2=O` [oestrone], for which, at CA-II, the Ki was 50.8 µM.
For the compound hyocholic acid [Compound 3], the inhibition constant (Ki) at CA-II is 38.9 µM.
In the case of `CCn1cc(C(=O)O)c(=O)c2cc(F)c(N3CCNC(C)C3)c(F)c21` (stereo not shown) [Lomefloxacin, reference compound], in [2], the “Prediction of CNS penetration” value is reported as “No (‘CNS−’ (prediction of low BBB permeation); Pe (10^−6 cm s^−1) < 1.78)”.

The values above are taken from publication PMC11075139 (RSC Advances, 2024).
